Experimental data published in ChEMBL document CHEMBL1125844, “Novel non-nucleoside inhibitors of HIV-1 reverse transcriptase. 1. Tricyclic pyridobenzo- and dipyridodiazepinones” (J Med Chem, 1991).

Assays:
[1] = molecular target: Human immunodeficiency virus type 1 reverse transcriptase (Human immunodeficiency virus 1) (UniProt Q72547); test: In vitro inhibitory activity of compound against human immunodeficiency virus type 1 (HIV-1) rReverse transcriptase at a concentration of 10 ug/mL.
[2] = molecular target: T1, Human immunodeficiency virus type 1 reverse transcriptase (Human immunodeficiency virus 1, UniProt Q72547); test: In vitro inhibitory activity of compound against human immunodeficiency virus type 1 (HIV-1) Reverse transcriptase
T-cell line = test: In vitro cytotoxicity in CD4+ human T-cells (c8166), […]; type: functional
[3] = molecular target: T1, Human immunodeficiency virus type 1 reverse transcriptase; test: In vitro inhibitory activity against human immunodeficiency virus type 1 (HIV-1) reverse transcriptase (RT)
[4] = molecular target: Human immunodeficiency virus type 1 reverse transcriptase (Human immunodeficiency virus 1) (UniProt Q72547); test: In vitro inhibitory activity against human immunodeficiency virus type 1 (HIV-1) reverse transcriptase (RT) at a concentration of 10 ug/mL.
[5] = molecular target: Human immunodeficiency virus type 1 reverse transcriptase (Human immunodeficiency virus 1) (UniProt Q72547); test: In vitro inhibitory activity of compound against human immunodeficiency virus type 1 (HIV-1) Reverse transcriptase at a concentration of 10 ug/mL.

IC50 [3] [µM]	inhibition [4] [%]	Compound	also measured
0.006	–	Cc1cn([C@H]2C[C@H](N=[N+]=[N-])[C@@H](CO)O2)c(=O)[nH]c1=O [ZIDOVUDINE]	CC50 (T-cell line): 66 µM
> 1	34	CN(C)CCN1C(=O)c2cccnc2N(C2CC2)c2ncccc21	–
> 1	94	C#CCN1c2ncccc2C(=O)N(C)c2cccnc21	–
> 1	88	CC[C@H](C)N1c2ncccc2NC(=O)c2cccnc21	–
> 1	75	CN1c2ccccc2NC(=O)c2cccnc21	–
> 1	46	Cc1ccc2c(n1)Nc1ccccc1C(=O)N2	–
> 1	92	CCN1c2ncccc2C(=O)N(C)c2cc(N)cnc21	–
> 1	47	CCN1c2ccc(O)cc2N(C)C(=O)c2cccnc21	–
> 1	49	CCN1c2cc(NC(C)=O)ccc2N(C)C(=O)c2cccnc21	–
> 1	96	Cc1ccnc2c1N(C)C(=O)c1cccnc1N2C1CC1	–
> 1	56	CCN1c2ccc([N+](=O)[O-])cc2N(C)C(=O)c2cccnc21	–
3.5	87	CCN1c2ncc(Cl)cc2C(=O)N(C)c2cccnc21	–
> 1	83	C=CCN1C(=O)c2cccnc2N(C(C)=O)c2ccccc21	–

More lines, now with the values behind:

Compound	IC50 [3] [µM]	inhibition [4] [%]	also measured
CCN1C(=O)c2ccccc2N(C)c2nc(Cl)ccc21	–	–	inhibition [1]: 76%; IC50 [2]: 3.3 µM
CCCN1c2ccccc2N(C)C(=O)c2cccnc21	0.23	99	–
O=C1Nc2cccnc2N(C2CCCC2)c2ncccc21	> 1	94	–
CCN1c2cc(C)c(C)cc2N(C)C(=O)c2cccnc21	0.04	100	–
CCN1c2cc([N+](=O)[O-])ccc2N(C)C(=O)c2cccnc21	0.4	99	–
C=CCN1C(=O)c2cccnc2N(C(=O)CC)c2ccccc21	> 1	72	–
CCN1c2ccc(Cl)cc2N(C)C(=O)c2cccnc21	0.17	99	–
CCN1c2ncccc2C(=O)N(C)c2cc(Cl)c([N+](=O)[O-])nc21	–	–	inhibition [5]: 98%; IC50 [2]: > 1 µM
CCN1C(=O)c2ccccc2N(CC)c2ncccc21	0.69	96	–
CN1C(=O)c2cccnc2N(S(C)(=O)=O)c2ncccc21	> 1	77	–
CSCN1c2ncccc2C(=O)N(C)c2cccnc21	0.85	99	–
CCN1c2ncccc2NC(=O)c2cc(C)cnc21	> 1	89	–
CCCN1c2ncccc2C(=O)N(C)c2cccnc21	0.45	100	–
CCN1c2ncccc2C(=O)N(C)c2ccc(Cl)nc21	–	–	inhibition [5]: 100%; IC50 [2]: 0.15 µM
